Source: PubChem BioAssay AID2060903 (Molecular Pharmacology Branch, DTP, NCI, 2025)
One block for each compound: values may come before it.

Tested on: 377384-186-R-J1-PDC complex spheroid viability
Assay: Anticancer human tumor 377384-186-R-J1-PDC patient-derived pancreatic carcinoma cell line growth inhibition [RAS]
Conditions: for IC50: curve of first compound; for viability, T/C: stronger effect = lower value
Excerpt: RAS pathway inhibitors in Combinations in Complex Spheroids
A high-throughput screen of multi-cell type tumor spheroids was designed to identify active combinations of RAS pathway inhibitors and targeted small molecules. Complex spheroids include a stromal component modeled by human endothelial cells (HUVEC) and fibroblasts modeled by human mesenchymal stem cells (MSCs). The concentration ranges selected for each drug and investigational agent were based upon clinically achievable concentrations if the clinical Cmax of the agent was known.
Compounds. The drugs and investigational agents: abemaciclib (NSC768073), cobimetinib (NSC768068), divarasib (GDC6063, NSC841802), docetaxel (NSC628503), GDC-1971 (RLY-1971, NSC841576), gemcitabine (NSC613327), inavolisib (NSC800729), ipatasertib (NSC767898), KB-0742 (NSC834161), MRTX-1133 (NSC836407), osimertinib (NSC779217), RMC-4630 (NSC839698), RMC-6236 (NSC851965), RMC-6291 (NSC852671), Ro-3306 (NSC812927), sapanisertib (NSC764658), SN-38 (NSC673596), staurosporine (NSC755774), SY5609 (NSC837396), and tovorafenib (DAY101, NSC766906), were obtained from the National Cancer Institute (NCI) Developmental Therapeutics Program Chemical Repository. The FDA-approved anticancer drug set is available from the NCI Developmental Therapeutics Program. […] The stock solutions were prepared in dimethyl sulfoxide (DMSO, Sigma-Aldrich, St. Louis, MO, cat. D2650) at 800-fold the tested concentration and stored at -70 degrees C prior to their use. All drugs and investigational agents were tested over a range starting from a high concentration at or near the clinical Cmax and decreasing in half-log increments. If the clinical Cmax for an agent had not been determined, the highest concentration tested was 10 microM.
Cell Culture. All cells were maintained in an incubator at 37 degrees C and 5% CO2 with 95% humidity. The PDC lines were cultured according to standard operating procedures established by the NCI PDMR. All PDCs were thawed and cultured in Matrigel-coated flasks prepared with a working solution of 1X Ham's F-12 nutrient mix, without supplementation (Invitrogen, Waltham, MA, cat. 11765054), 100 U/mL penicillin-streptomycin (Invitrogen, cat. 15140122), and 2.5% Matrigel (Corning Inc., Corning, NY, cat. 354248) for the first three passages. The 362531-283-R-J2-PDC and 782815-120-R-J1-PDC lines were cultured in 6C/Colon 1B media, which includes advanced DMEM/F-12 (Thermo Fisher Scientific, cat. 12634028), 10 mM HEPES (Thermo Fisher Scientific, cat. 15630080), 1X GlutaMAX supplement (Thermo Fisher Scientific, cat. 35050061), 0.1 mg/mL primocin (InvivoGen, San Diego, CA, cat. ant-pm-2), 10% defined fetal bovine serum, heat inactivated (HyClone Laboratories Inc., Logan, UT, cat. SH30070.03HI), 50% L-WRN conditioned media (ATCC, cat. CRL-3276), 1.25 mM N-Acetyl-L-cysteine (Sigma-Aldrich, cat. A9165), 10 mM nicotinamide (Sigma-Aldrich, cat. N0636), 1X B-27 supplement (Thermo Fisher Scientific, cat. 17504044), 1X N-2 supplement (Thermo Fisher Scientific, cat. 17502048), 50 ng/mL human EGF (Thermo Fisher Scientific, cat. PHG0311), and 10 microM Y-27632 dihydrochloride (Tocris Bioscience, cat. 1254). The K12877-001-R-J1-PDC line was cultured in 6I media, which includes all 6C/Colon 1B media plus 10 ng/mL human FGF-10 (PeproTech, cat. 100-26), 1 ng/mL human FGF-2 (PeproTech, cat. 100-18B), 1 µM prostaglandin E2 (Tocris Bioscience, cat. 2296), […] hydrocortisone (Sigma-Aldrich, cat. H4001), and […] bovine insulin (Sigma-Aldrich, cat. I6634). The K86415-001-R-J1-PDC line was cultured in 6D media, which includes all 6C/Colon 1B media components minus the L-WRN conditioned media. The 485176-168-R4-J1-PDC was cultured in PANC media, which includes all 6C/Colon 1B media plus 100 ng/mL human FGF-10 (PeproTech, cat. 100-26), 500 nM SB-431542 (Selleckchem, cat. S1067), and 10 nM gastrin (Tocris Bioscience, cat. 3006). […]

[1] = second compound 0.0316 µM, first compound 0.0316 µM
[2] = second compound 0.0316 µM, first compound 0.1 µM
[3] = second compound 0.0316 µM, first compound 0.316 µM
[4] = second compound 0.0316 µM, first compound 1 µM
[5] = second compound 0.0316 µM, first compound 3.16 µM
[6] = second compound 0.0316 µM, first compound 10 µM
[7] = second compound 0.1 µM, first compound 0.0316 µM
[8] = second compound 0.1 µM, first compound 0.1 µM
[9] = second compound 0.1 µM, first compound 0.316 µM
[10] = second compound 0.1 µM, first compound 1 µM
[11] = second compound 0.1 µM, first compound 3.16 µM
[12] = second compound 0.1 µM, first compound 10 µM
[13] = second compound 0.316 µM, first compound 0.0316 µM
[14] = second compound 0.316 µM, first compound 0.1 µM
[15] = second compound 0.316 µM, first compound 0.316 µM
[16] = second compound 0.316 µM, first compound 1 µM
[17] = second compound 0.316 µM, first compound 3.16 µM
[18] = second compound 0.316 µM, first compound 10 µM
[19] = second compound 1 µM, first compound 0.0316 µM
[20] = second compound 1 µM, first compound 0.1 µM
[21] = second compound 1 µM, first compound 0.316 µM
[22] = second compound 1 µM, first compound 1 µM
[23] = second compound 1 µM, first compound 3.16 µM
[24] = second compound 1 µM, first compound 10 µM
[25] = second compound 3.16 µM, first compound 0.0316 µM
[26] = second compound 3.16 µM, first compound 0.1 µM
[27] = second compound 3.16 µM, first compound 0.316 µM
[28] = second compound 3.16 µM, first compound 1 µM
[29] = second compound 3.16 µM, first compound 3.16 µM
[30] = second compound 3.16 µM, first compound 10 µM
[31] = second compound 10 µM, first compound 0.0316 µM
[32] = second compound 10 µM, first compound 0.1 µM
[33] = second compound 10 µM, first compound 0.316 µM
[34] = second compound 10 µM, first compound 1 µM
[35] = second compound 10 µM, first compound 3.16 µM
[36] = second compound 10 µM, first compound 10 µM
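Further: spheroids exposed to compounds for seven days before readout.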

IC50 (second compound 0.0316 µM): < 31.6 nM
IC50 (second compound 0.1 µM): < 31.6 nM
IC50 (second compound 0.316 µM): < 31.6 nM
IC50 (second compound 1 µM): < 31.6 nM
IC50 (second compound 3.16 µM): < 31.6 nM
IC50 (second compound 10 µM): < 31.6 nM
SMILES: CC1(O)CCCC1n1c(=O)c(C(F)F)cc2cnc(NC3CCN(S(C)(=O)=O)CC3)nc21 (centres undefined) + C#Cc1c(F)ccc2cc(O)cc(-c3ncc4c(N5CC6CCC(C5)N6)nc(OCC56CCCN5CC(F)C6)nc4c3F)c12
viability, T/C [1]: 15.5%
viability, T/C [2]: 12.7%
viability, T/C [3]: 10%
viability, T/C [4]: 11.7%
viability, T/C [5]: 16%
viability, T/C [6]: 5.41%
viability, T/C [7]: 8.93%
viability, T/C [8]: 6.57%
viability, T/C [9]: 6.54%
viability, T/C [10]: 7.97%
viability, T/C [11]: 9.01%
viability, T/C [12]: 4.92%
viability, T/C [13]: 5.04%
viability, T/C [14]: 3.52%
viability, T/C [15]: 3.71%
viability, T/C [16]: 4.22%
viability, T/C [17]: 6.59%
viability, T/C [18]: 5.41%
viability, T/C [19]: 2.55%
viability, T/C [20]: 2.39%
viability, T/C [21]: 2.88%
viability, T/C [22]: 3.55%
viability, T/C [23]: 4.3%
viability, T/C [24]: 5.91%
viability, T/C [25]: 2%
viability, T/C [26]: 2.27%
viability, T/C [27]: 3.01%
viability, T/C [28]: 3.27%
viability, T/C [29]: 3.34%
viability, T/C [30]: 6.51%
viability, T/C [31]: 1.76%
viability, T/C [32]: 1.46%
viability, T/C [33]: 1.91%
viability, T/C [34]: 2%
viability, T/C [35]: 1.28%
viability, T/C [36]: 2.73%

IC50 (second compound 0.0316 µM): < 31.6 nM
IC50 (second compound 0.1 µM): < 31.6 nM
IC50 (second compound 0.316 µM): < 31.6 nM
IC50 (second compound 1 µM): < 31.6 nM
IC50 (second compound 3.16 µM): < 31.6 nM
IC50 (second compound 10 µM): < 31.6 nM
SMILES: CCC(CC)c1cc(NC2CCC(N)C2)n2nccc2n1 (centres undefined) + C#Cc1c(F)ccc2cc(O)cc(-c3ncc4c(N5CC6CCC(C5)N6)nc(OCC56CCCN5CC(F)C6)nc4c3F)c12
viability, T/C [1]: 27.3%
viability, T/C [2]: 24.2%
viability, T/C [3]: 22.7%
viability, T/C [4]: 16%
viability, T/C [5]: 1.58%
viability, T/C [6]: 5.35%
viability, T/C [7]: 10.8%
viability, T/C [8]: 12.2%
viability, T/C [9]: 7.8%
viability, T/C [10]: 9.56%
viability, T/C [11]: 1.88%
viability, T/C [12]: 5.23%
viability, T/C [13]: 5.57%
viability, T/C [14]: 5.89%
viability, T/C [15]: 4.79%
viability, T/C [16]: 4.23%
viability, T/C [17]: 1.7%
viability, T/C [18]: 5.13%
viability, T/C [19]: 3.15%
viability, T/C [20]: 3.52%
viability, T/C [21]: 2.78%
viability, T/C [22]: 3.71%
viability, T/C [23]: 2.1%
viability, T/C [24]: 6.67%
viability, T/C [25]: 2.7%
viability, T/C [26]: 2.53%
viability, T/C [27]: 2.14%
viability, T/C [28]: 2.51%
viability, T/C [29]: 1.88%
viability, T/C [30]: 6.5%
viability, T/C [31]: 1.53%
viability, T/C [32]: 1.24%
viability, T/C [33]: 1.12%
viability, T/C [34]: 1.66%
viability, T/C [35]: 1.33%
viability, T/C [36]: 3.5%
